Laboratory results: publication PMC4243253 (Biochemical Journal, 2014)
Read-outs that look alike come from different tables or passages of the source.

How the values were obtained:
[1] = molecular target: T1, BaKynB (Bacillus anthracis, UniProt Q81PP9); test: biochemical
T1 construct: gene kynB

[2] = molecular target: T1, BaKynB; test: biochemical; remark: listed apart in the source

T1 sequence (Q81PP9 whole entry, looked up): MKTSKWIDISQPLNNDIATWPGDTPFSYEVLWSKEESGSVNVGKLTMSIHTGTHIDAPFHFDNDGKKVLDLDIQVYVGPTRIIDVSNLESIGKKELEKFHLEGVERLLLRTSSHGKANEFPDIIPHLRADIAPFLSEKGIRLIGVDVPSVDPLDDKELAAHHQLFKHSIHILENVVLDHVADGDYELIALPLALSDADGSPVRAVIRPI

SMILES | Kd [1] | Kd [2]
CC(=O)c1ccccc1N [2-aminoacetophenone] | ~50 µM | –
Nc1ccccc1C(=O)C[C@H](N)C(=O)O [L-kynurenine, (S)-2-amino-4-(2-aminophenyl)-4-oxobutanoic acid] | – | ~60 µM
